Among the test systems are MDA-MB-231 breast; HOP-92 NSCLC; CAKI-1 renal; NCI-H226 lung; A498 renal; SW-620 colon; HS 578T breast; HOP-62 NSCLC; EKVX NSCLC; MALME-3M melanoma.
Holding throughout (test): DTP human tumour cell line panel, 48 h

The source of these data is PubChem BioAssay (NCI).

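Exposure lasted 48 hours, with cells grown in 96-well plates and compounds tested at five concentrations. At the GI50, growth is halved. TGI: concentration producing complete growth inhibition.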

By GI50 is commonly meant the concentration at which growth is held to half of that of the control. By TGI is commonly meant the concentration at which net growth stops. The low end stands for greater sensitivity of the cells, the high end for lower sensitivity of the cells. As to `O=C1/C(=C/c2ccccc2F)CN(C(=O)C(Cl)Cl)C/C1=C\c1ccccc1F`, the concentration for 50% growth inhibition (GI50) in the test with MDA-MB-231 breast was 0.404 µM; in the test on HOP-92 NSCLC, 1.53 µM; in the test on CAKI-1 renal, 0.986 µM; in the test on NCI-H226 lung it was 1.4 µM; in the test on A498 renal it was 1.54 µM; with SW-620 colon, 0.093 µM. In addition, the GI50 in the test with HS 578T breast is 0.985 µM; in the test with HOP-62 NSCLC it was 0.906 µM; with EKVX NSCLC it was 0.451 µM; with MALME-3M melanoma, 0.599 µM. Moreover, the TGI in the test with MDA-MB-231 breast was found to be 1.58 µM; in the test with HOP-92 NSCLC it was 3.39 µM; with CAKI-1 renal, 2.3 µM; with NCI-H226 lung, 6.85 µM; in the test with A498 renal it was 3.14 µM; with SW-620 colon, 0.343 µM. In addition, the concentration for total growth inhibition (TGI) in the test with HS 578T breast came to 5.51 µM; in the test on HOP-62 NSCLC, 2.44 µM; with EKVX NSCLC, 2.06 µM; in the test with MALME-3M melanoma, 1.92 µM.
`COc1cc(C2CC(c3ccccc3)=NN2C(C)=O)cc(OC)c1OC` (centres undefined): the GI50 in the test on MDA-MB-231 breast was 7.68 µM; with HOP-92 NSCLC, 32.9 µM; with CAKI-1 renal it was 2.45 µM; in the test with NCI-H226 lung, 6.8 µM; in the test on A498 renal it was 4.79 µM; in the test with SW-620 colon it was 3.04 µM. The GI50 in the test on HS 578T breast is 2.57 µM; in the test with HOP-62 NSCLC it was 5.59 µM; with EKVX NSCLC, 6.41 µM; in the test with MALME-3M melanoma, 13 µM. The TGI in the test with MDA-MB-231 breast, in the test with HOP-92 NSCLC, with CAKI-1 renal, with NCI-H226 lung, with A498 renal and in the test with SW-620 colon was above 100 µM throughout. Further, the TGI is 34.6 µM with HS 578T breast, above 100 µM in the test with HOP-62 NSCLC, above 100 µM with EKVX NSCLC and above 100 µM in the test on MALME-3M melanoma.
Take `Cc1ccc(-c2nc(N)c(C#N)c3c2CCOc2c-3ccc3ccccc23)cc1`: the GI50 in the test on MDA-MB-231 breast is 0.07 µM; in the test on HOP-92 NSCLC, 0.334 µM; in the test with CAKI-1 renal it was 0.171 µM; with NCI-H226 lung, above 100 µM; in the test on A498 renal, 0.0794 µM; in the test on SW-620 colon, 1.76 µM. For the same compound, the concentration for 50% growth inhibition (GI50) with HS 578T breast is 0.227 µM; with HOP-62 NSCLC, 0.313 µM; with EKVX NSCLC, 3.12 µM; with MALME-3M melanoma, 0.0779 µM. Further, the concentration for total growth inhibition (TGI) was 0.626 µM with MDA-MB-231 breast; 7.44 µM with HOP-92 NSCLC; 16.9 µM in the test with CAKI-1 renal; above 100 µM in the test on NCI-H226 lung; 0.609 µM with A498 renal; above 93.4 µM with SW-620 colon. Besides, the total growth inhibition concentration (TGI) in the test with HS 578T breast turned out to be 1.51 µM; in the test on HOP-62 NSCLC it was 7.93 µM; with MALME-3M melanoma it was 7.89 µM.
Turning to `CC1OC(n2c3ccccc3c3c4c(c5c6ccccc6[nH]c5c32)C(=O)N(CCN2CCOCC2)C4=O)CC(O)C1O` (centres undefined), the GI50 with MDA-MB-231 breast was 6.63 µM; in the test with HOP-92 NSCLC, 7.77 µM; in the test with CAKI-1 renal, 1.44 µM; in the test with NCI-H226 lung, 2.2 µM; in the test on A498 renal, 5.13 µM; in the test with SW-620 colon, 1.07 µM. Moreover, the GI50 in the test with HS 578T breast is 6.32 µM; in the test with HOP-62 NSCLC, 1.52 µM; in the test with EKVX NSCLC it was 6.14 µM; in the test on MALME-3M melanoma, 4.54 µM. The TGI with MDA-MB-231 breast is 18.9 µM; with HOP-92 NSCLC, 15.8 µM; in the test with CAKI-1 renal, 6.37 µM; in the test on NCI-H226 lung, 9.87 µM; with A498 renal, 13.4 µM; in the test with SW-620 colon, 8.78 µM. Further, the total growth inhibition concentration (TGI) with HS 578T breast amounted to 16.2 µM; with HOP-62 NSCLC, 8.26 µM; in the test on EKVX NSCLC, 17.7 µM; in the test with MALME-3M melanoma, 12.8 µM.
Consider `CC(=O)OC1Oc2cc(C)c(C)cc2-c2oc(=O)c(-c3ccc(F)cc3)cc21` (centres undefined), for which the GI50 is 8.34 µM in the test on MDA-MB-231 breast; 3.1 µM in the test with HOP-92 NSCLC; 15.8 µM in the test on CAKI-1 renal; 12.9 µM in the test with NCI-H226 lung; 5.06 µM in the test with A498 renal; 3.87 µM in the test with SW-620 colon. Besides, the GI50 in the test on HS 578T breast is 8.56 µM; in the test with HOP-62 NSCLC it was 12.9 µM; with EKVX NSCLC it was 5.23 µM; in the test on MALME-3M melanoma, 5.04 µM. In addition, the concentration for total growth inhibition (TGI) with MDA-MB-231 breast is 65 µM; in the test with HOP-92 NSCLC, 16.9 µM; in the test with CAKI-1 renal, above 100 µM; with NCI-H226 lung, above 100 µM; with A498 renal, 67.4 µM; in the test on SW-620 colon it was 28.8 µM. The TGI in the test with HS 578T breast was 68.6 µM; with HOP-62 NSCLC, 72.5 µM; in the test on EKVX NSCLC, above 100 µM; with MALME-3M melanoma, 31.7 µM.
Consider `COc1ccc(OC)c(/C=C2\COc3ccc(O)c(O)c3C2=O)c1`, for which the GI50 was 2.74 µM with MDA-MB-231 breast; 2.8 µM in the test on HOP-92 NSCLC; 2.08 µM in the test on CAKI-1 renal; 6.76 µM with NCI-H226 lung; 11.2 µM in the test on A498 renal; 2.22 µM in the test with SW-620 colon. The GI50 in the test with HS 578T breast was 5.3 µM; in the test on HOP-62 NSCLC, 8.63 µM; in the test with EKVX NSCLC, 3.26 µM; in the test with MALME-3M melanoma, 2.1 µM. Moreover, the TGI in the test with MDA-MB-231 breast worked out at 11.8 µM; in the test on HOP-92 NSCLC, 8.86 µM; in the test with CAKI-1 renal, 5.73 µM; in the test on NCI-H226 lung, 36.8 µM; in the test with A498 renal it was 23.6 µM; with SW-620 colon it was 5.98 µM. The TGI with HS 578T breast was found to be 36.8 µM; in the test on HOP-62 NSCLC, 24.5 µM; in the test on EKVX NSCLC it was 12.2 µM; in the test with MALME-3M melanoma it was 6.58 µM.
Take `COc1ccc2c(c1)/C(=C\c1c(Cl)n(C)c3ccccc13)C(=O)N2`: the 50% growth inhibitory concentration (GI50) is 0.399 µM in the test with MDA-MB-231 breast; 5.5 µM in the test with HOP-92 NSCLC; 1.1 µM in the test on CAKI-1 renal; 2.19 µM with NCI-H226 lung; 0.611 µM with A498 renal; 1.13 µM in the test with SW-620 colon. For the same compound, the GI50 in the test with HS 578T breast was 1.44 µM; in the test on HOP-62 NSCLC it was 1.44 µM; in the test with EKVX NSCLC, 3.95 µM; in the test on MALME-3M melanoma, 4.59 µM. Further, the total growth inhibition concentration (TGI) in the test with MDA-MB-231 breast came to 9.53 µM; in the test with HOP-92 NSCLC it was 29.4 µM; in the test on CAKI-1 renal, 13.6 µM; in the test on NCI-H226 lung, 19.5 µM; in the test on A498 renal, 4.31 µM; in the test with SW-620 colon it was 17.1 µM. Also, the total growth inhibition concentration (TGI) with HS 578T breast came to 8.12 µM; with HOP-62 NSCLC, 24 µM; in the test on EKVX NSCLC it was 24.4 µM; in the test on MALME-3M melanoma, 16.7 µM.
